Experimental data taken from patent publication US8759333B2, “Di-azetidinyl diamide as monoacylglycerol lipase inhibitors” (Janssen Pharmaceutica, NV, priority 2010, dated 2014).

Key:
[1] = molecular target: T1, mutant MGL (mut-MGLL 11-313 L179S L186S) (Homo sapiens, UniProt Q99685, L169S/L176S); test: MGL Enzyme Activity Assay, purified mutant MGL, 4MU-B substrate; assay type: biochemical; settings: mutant MGL 5 nM, 4MU-B 10 μM, 37° C.; read-out: MGL mutant inh IC50
T1 construct: purified mutant MGL (mut-MGLL 11-313 L179S L186S)
T1 sequence (Q99685 1-303 L169S/L176S): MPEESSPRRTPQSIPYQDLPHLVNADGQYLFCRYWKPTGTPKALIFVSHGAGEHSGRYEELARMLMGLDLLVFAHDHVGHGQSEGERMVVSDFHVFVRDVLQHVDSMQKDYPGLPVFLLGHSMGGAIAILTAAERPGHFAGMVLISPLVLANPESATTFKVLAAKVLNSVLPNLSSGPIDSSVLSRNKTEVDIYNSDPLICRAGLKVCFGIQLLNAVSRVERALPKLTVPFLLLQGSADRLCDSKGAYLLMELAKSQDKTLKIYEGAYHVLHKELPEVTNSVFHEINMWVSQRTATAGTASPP
Procedure: All rate-based assays were performed in black 384-well polypropylene PCR microplates (Abgene) in a total volume of 30 μL. Substrate 4-methylumbelliferyl butyrate (4MU-B; Sigma) and either purified mutant MGL (mut-MGLL 11-313 L179S L186S) or purified wild type MGL (wt-MGLL 6H-11-313) were diluted separately into 20 mM PIPES buffer (pH=7.0), containing 150 mM NaCl and 0.001% Tween 20. Compounds of Formula (I), including Formulas I(a), I(b), and I(c), were pre-dispensed (50 nL) into the assay plate using a Cartesian Hummingbird prior to adding 4MU-B (25 μL of 1.2× solution to a final concentration of 10 μM) followed by enzyme (5 μL of a 6× solution to a final concentration of 5 nM) to initiate the reaction. Final compound concentrations ranged from 17 to 0.0003 μM. The fluorescence change due to 4MU-B cleavage was monitored with excitation and emission wavelengths of 335 and 440 nm, respectively, and a bandwidth of 10 nm (Safire^2, Tecan) at 37° C. for 5 min.
The IC50 values for the following compounds were determined using Microsoft Office Excel from a fit of the equation to the concentration-response plot of the fractional activity as a function of inhibitor concentration.

[2] = molecular target: T2, MGL (Rattus norvegicus, UniProt Q8R431); test: 2-AG Accumulation Assay in rat brain homogenate; assay type: biochemical; settings: compound @10 µM, percent of vehicle, read-out: Rat Brain 2AG % VehCntrl (%) @10 µM
T2 construct: one g rat brain was homogenized using a Polytron homogenizer; from tissue; host or cells: rat brain homogenate
T2 sequence (Q8R431 1-303): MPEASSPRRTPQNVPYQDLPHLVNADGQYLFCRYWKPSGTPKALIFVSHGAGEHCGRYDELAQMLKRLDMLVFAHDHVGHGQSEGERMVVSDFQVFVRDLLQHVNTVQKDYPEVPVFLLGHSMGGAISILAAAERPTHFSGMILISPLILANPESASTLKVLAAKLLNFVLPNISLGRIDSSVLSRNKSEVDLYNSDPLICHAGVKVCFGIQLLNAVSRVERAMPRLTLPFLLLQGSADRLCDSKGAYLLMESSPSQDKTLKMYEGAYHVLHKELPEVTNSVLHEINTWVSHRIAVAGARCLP

IC50 [1] [nM] | activity at 10 µM [2] [%] | SMILES
588 | – | O=C(c1ccccc1)c1ccc(C(=O)N2CC(N3CC(NC(=O)c4nccs4)C3)C2)cc1 [Cpd 38, N-(1′-{[4-(Phenylcarbonyl)phenyl]carbonyl}-1,3′-biazetidin-3-yl)-1,3-thiazole-2-carboxamide]
882 | – | O=C(NC1CN(C2CN(C(=O)c3ccc4cc(Br)ccc4c3)C2)C1)c1nccs1 [Cpd 40, N-{1′-[(6-Bromonaphthalen-2-yl)carbonyl]-1,3′-biazetidin-3-yl}-1,3-thiazole-2-carboxamide]
939 | – | O=C(NC1CN(C2CN(C(=O)c3ccc4nc(-c5ccccc5)oc4c3)C2)C1)c1ccccc1 [Cpd 41, N-{1′-[(2-Phenyl-1,3-benzoxazol-6-yl)carbonyl]-1,3′-biazetidin-3-yl}benzamide]
997 | – | O=C(NC1CN(C2CN(C(=O)c3ccc4cc(Br)ccc4c3)C2)C1)c1ccccc1 [Cpd 42, N-{1′-[(6-Bromonaphthalen-2-yl)carbonyl]-1,3′-biazetidin-3-yl}benzamide]
1830 | – | O=C(NC1CN(C2CN(C(=O)c3cc4cc(C(F)(F)F)ccc4s3)C2)C1)c1ccccc1 [Cpd 44, N-(1′-{[5-(Trifluoromethyl)-1-benzothiophen-2-yl]carbonyl}-1,3′-biazetidin-3-yl)benzamide]
< 5 | 722 | O=C(NC1CN(C2CN(C(=O)c3ccc4c(-c5ccccc5)cccc4c3)C2)C1)c1nccs1 [Cpd 53, N-{1′-[(5-Phenylnaphthalen-2-yl)carbonyl]-1,3′-biazetidin-3-yl}-1,3-thiazole-2-carboxamide]
154 | – | O=C(c1ccc2cc(Br)ccc2c1)N1CC(N2CC(N3Cc4ccccc4C3=O)C2)C1 [Cpd 90, 2-{1′-[(6-Bromonaphthalen-2-yl)carbonyl]-1,3′-biazetidin-3-yl}-2,3-dihydro-1H-isoindol-1-one]
236 | – | O=C(c1ccc(N2CCCCC2)cc1)N1CC(N2CC(N3Cc4ccccc4C3=O)C2)C1 [Cpd 91, 2-{1′-[(4-Piperidin-1-ylphenyl)carbonyl]-1,3′-biazetidin-3-yl}-2,3-dihydro-1H-isoindol-1-one]
750 | – | O=C(c1ccc(-c2cc3ccccc3s2)cc1)N1CC(N2CC(N3Cc4ccccc4C3=O)C2)C1 [Cpd 95, 2-(1′-{[4-(1-Benzothiophen-2-yl)phenyl]carbonyl}-1,3′-biazetidin-3-yl)-2,3-dihydro-1H-isoindol-1-one]
4670 | – | O=C(c1ccc(Br)cc1)N1CC(N2CC(N3Cc4ccccc4C3=O)C2)C1 [Cpd 96, 2-{1′-[(4-Bromophenyl)carbonyl]-1,3′-biazetidin-3-yl}-2,3-dihydro-1H-isoindol-1-one]

The next lines start with the compound.

SMILES | IC50 [1] [nM] | activity at 10 µM [2] [%]
O=C(NC1CN(C2CN(C(=O)c3cc4ccc(-c5ccccc5)cc4s3)C2)C1)c1nccs1 [Cpd 6, N-{1′-[(6-Phenyl-1-benzothiophen-2-yl)carbonyl]-1,3′-biazetidin-3-yl}-1,3-thiazole-2-carboxamide] | 8 | –
Cc1c(C(=O)N2CC(N3CC(NC(=O)c4nccs4)C3)C2)sc2ccc(Cl)cc12 [Cpd 15, N-{1′-[(5-Chloro-3-methyl-1-benzothiophen-2-yl)carbonyl]-1,3′-biazetidin-3-yl}-1,3-thiazole-2-carboxamide] | 28 | 611
O=C(NC1CN(C2CN(C(=O)c3ccc4c(Br)cccc4c3)C2)C1)c1nccs1 [Cpd 19, N-{1′-[(5-Bromonaphthalen-2-yl)carbonyl]-1,3′-biazetidin-3-yl}-1,3-thiazole-2-carboxamide] | 63 | 418
O=C(NC1CN(C2CN(C(=O)c3ccc(Cc4cccc(C(F)(F)F)c4)cc3)C2)C1)c1nccs1 [Cpd 20, N-[1′-({4-[3-(Trifluoromethyl)benzyl]phenyl}carbonyl)-1,3′-biazetidin-3-yl]-1,3-thiazole-2-carboxamide] | 65 | 977
O=C(NC1CN(C2CN(C(=O)c3ccc4cc(-c5ccccc5)ccc4c3)C2)C1)c1nccs1 [Cpd 21, N-{1′-[(6-Phenylnaphthalen-2-yl)carbonyl]-1,3′-biazetidin-3-yl}-1,3-thiazole-2-carboxamide] | 69 | 581
O=C(NC1CN(C2CN(C(=O)c3ccc4nc(-c5ccccc5)sc4c3)C2)C1)c1cscn1 [Cpd 22, N-{1′-[(2-Phenyl-1,3-benzothiazol-6-yl)carbonyl]-1,3′-biazetidin-3-yl}-1,3-thiazole-4-carboxamide] | 86 | –
O=C(NC1CN(C2CN(C(=O)c3cc4ccc(Br)cc4s3)C2)C1)c1nccs1 [Cpd 23, N-{1′-[(6-Bromo-1-benzothiophen-2-yl)carbonyl]-1,3′-biazetidin-3-yl}-1,3-thiazole-2-carboxamide] | 93 | 343
O=C(NC1CN(C2CN(C(=O)c3ccc4c(Br)cccc4c3)C2)C1)c1ccccc1 [Cpd 24, N-{1′-[(5-Bromonaphthalen-2-yl)carbonyl]-1,3′-biazetidin-3-yl}benzamide] | 99 | 73
O=C(NC1CN(C2CN(C(=O)c3ccc4c(-c5ccccc5)cccc4c3)C2)C1)c1ccccc1 [Cpd 25, N-{1′-[(5-Phenylnaphthalen-2-yl)carbonyl]-1,3′-biazetidin-3-yl}benzamide] | 154 | –
O=C(NC1CN(C2CN(C(=O)c3ccc(Cc4ccc(C(F)(F)F)cc4)cc3)C2)C1)c1ccccc1 [Cpd 26, N-[1′-({4-[4-(Trifluoromethyl)benzyl]phenyl}carbonyl)-1,3′-biazetidin-3-yl]benzamide] | 157 | –
O=C(NC1CN(C2CN(C(=O)c3ccc4nc(-c5cccc(C(F)(F)F)c5)oc4c3)C2)C1)c1nccs1 [Cpd 28, N-[1′-({2-[3-(Trifluoromethyl)phenyl]-1,3-benzoxazol-6-yl}carbonyl)-1,3′-biazetidin-3-yl]-1,3-thiazole-2-carboxamide] | 180 | –
O=C(NC1CN(C2CN(C(=O)c3ccc(-c4ccccc4)cc3)C2)C1)c1nccs1 [Cpd 29, N-[1′-(Biphenyl-4-ylcarbonyl)-1,3′-biazetidin-3-yl]-1,3-thiazole-2-carboxamide] | 184 | –
O=C(NC1CN(C2CN(C(=O)c3ccc4nc(-c5ccc(C(F)(F)F)cc5)oc4c3)C2)C1)c1nccs1 [Cpd 30, N-[1′-({2-[4-(Trifluoromethyl)phenyl]-1,3-benzoxazol-6-yl}carbonyl)-1,3′-biazetidin-3-yl]-1,3-thiazole-2-carboxamide] | 264 | –
O=C(NC1CN(C2CN(C(=O)c3ccc(Oc4ccccc4)cc3)C2)C1)c1nccs1 [Cpd 32, N-{1′-[(4-Phenoxyphenyl)carbonyl]-1,3′-biazetidin-3-yl}-1,3-thiazole-2-carboxamide] | 287 | –
O=C(NC1CN(C2CN(C(=O)c3ccc4nc(-c5ccc(Cl)cc5)oc4c3)C2)C1)c1nccs1 [Cpd 33, N-(1′-{[2-(4-Chlorophenyl)-1,3-benzoxazol-6-yl]carbonyl}-1,3′-biazetidin-3-yl)-1,3-thiazole-2-carboxamide] | 303 | –
O=C(NC1CN(C2CN(C(=O)c3ccc4cc(-c5ccccc5)ccc4c3)C2)C1)c1ccccc1 [Cpd 34, N-{1′-[(6-Phenylnaphthalen-2-yl)carbonyl]-1,3′-biazetidin-3-yl}benzamide] | 332 | –
O=C(NC1CN(C2CN(C(=O)c3ccc4oc(-c5ccccc5)nc4c3)C2)C1)c1nccs1 [Cpd 35, N-{1′-[(2-Phenyl-1,3-benzoxazol-5-yl)carbonyl]-1,3′-biazetidin-3-yl}-1,3-thiazole-2-carboxamide] | 341 | –
Cc1c(C(=O)N2CC(N3CC(NC(=O)c4ccccc4)C3)C2)sc2ccc(Cl)cc12 [Cpd 36, N-{1′-[(5-Chloro-3-methyl-1-benzothiophen-2-yl)carbonyl]-1,3′-biazetidin-3-yl}benzamide] | 458 | –
CN(C(=O)c1nccs1)C1CN(C2CN(C(=O)c3cc4ccc(C(F)(F)F)cc4s3)C2)C1 [Cpd 37, N-Methyl-N-(1′-{[6-(trifluoromethyl)-1-benzothiophen-2-yl]carbonyl}-1,3′-biazetidin-3-yl)-1,3-thiazole-2-carboxamide] | 476 | –
